Laboratory results as given in patent publication US8916602B2, “Fusarisetin compounds, and use thereof” (Korea Research Institute of Bioscience and Biotechnology, priority 2010, dated 2014).
Converted amounts (≈) assume the structure as drawn.

Columns and labels:
Assay type in all cases: cell-based
[1] = system: mouse fibroblast cell line (3Y1); test: Inhibition of cell proliferation (WST-8 cell survival), 3Y1; details: 3Y1 cell line, 48 hours culture with compound, WST-8, OD450
Description: (§1) Following experiment was performed to investigate the inhibitory activity of the compounds 1 and 2 of the present invention on the proliferation of cancer cells.
(§2) Particularly, human breast cancer cell line (MDA-MB-231, 5.0×10^3 cells per well), mouse fibroblast cell line (3Y1, 5.0×10^3 cells per well), and human liver cancer cell line (Hep3B, 5.0×10^3 cells per well) were cultured respectively in DMEM (Dulbecco's modification of Eagles medium, supplemented with 10% FBS). And human chronic myeloid leukemia cell line (K562, 3.0×10^4 cells per well) and human promyelocytic leukemia cell line (HL-60, 1.0×10^5 cells per well) were cultured respectively in RPMI 1640 (Roswell Park Memorial Institute 1640 medium, supplemented with 10% FBS). Each cell line cultured above was treated with different concentrations of the compound 1 and compound 2 (100 μg/ml, 30 μg/ml, 10 μg/ml, 3 μg/ml, and 1 μg/ml), followed by culture in a 5% CO2 incubator for 48 hours at 37° C. WST-8 reagent (2-(2-methoxy-4-nitrophenyl)-3-(4-nitrophenyl)-5-(2,4-disulfophenyl)-2H-tetrazolium, monosodium salt) producing high sensitive water soluble formazan was added thereto, followed by further culture for 24 hours. OD450 was measured to calculate cell survival rate.

[2] = system: human breast cancer cell line (MDA-MB-231); test: Inhibition of cancer cell proliferation (WST-8 cell survival), MDA-MB-231; details: MDA-MB-231 cell line, 48 hours culture with compound, WST-8, OD450
Description: as §1, §2

[3] = system: human promyelocytic leukemia cell line (HL-60); test: Inhibition of cancer cell proliferation (WST-8 cell survival), HL-60; details: HL-60 cell line, 48 hours culture with compound, WST-8, OD450
Description: as §1, §2

[4] = system: human breast cancer cells (MDA-MB-231 cells); test: Inhibition of cancer cell metastasis, trans-well chamber (Matrigel Invasion Chamber); details: migration induced by 10% FBS, 24 hours, tested at 30, 10 and 3 μg/ml
Description: Trans-well chamber (BioCoat™ Matrigel™ Invasion Chamber, pore size 8 μm, BD Biosciences, Bedford, Mass.) was used for the investigation of inhibitory activity of the compounds of the present invention on cancer cell metastasis. Particularly, human breast cancer cells (MDA-MB-231 cells) were distributed on the upper part of the chamber at the density of 1.0×10^5 cells per well. DMEM (Dulbecco's modification of Eagles medium, serum-free) was used for the culture. 30 minutes later, the compounds 1 and 2 were added to the upper part of the chamber at different concentrations of 30 μg/ml, 10 μg/ml, and 3 μg/ml, respectively. 30 minutes later, 10% FBS was added to the bottom of the chamber, followed by culture in a 5% CO2 incubator at 37° C. for 24 hours. 24 hours later, the cells migrated through porous membrane which had been induced by 10% FBS in the bottom of the chamber were fixed with 100% MeOH, followed by staining with Wright stain. Upon completion of the staining, the migrated cells were counted under microscope.

[5] = system: human chronic myeloid leukemia cell line (K562); test: Inhibition of cancer cell proliferation (WST-8 cell survival), K562; details: 48 hours culture with compound, WST-8, OD450
Description: as §1, §2

[6] = system: human liver cancer cell line (Hep3B); test: Inhibition of cancer cell proliferation (WST-8 cell survival), Hep3B; details: 48 hours culture with compound, WST-8, OD450
Description: as §1, §2

SMILES	IC50 [1] [µg/mL]	IC50 [2] [µg/mL]	IC50 [3] [µg/mL]	ED100 indicating the concentration capable of inhibiting metastasis of human breast cancer cell line by 100% [4] [µg/mL]	IC50 [5] [µg/mL]	IC50 [6] [µg/mL]
C[C@H]1CC[C@H]2[C@@H](C=C[C@@H]3[C@H]4[C@@H](C)O[C@]5(O)[C@@H](CO)N(C)C(=O)[C@]45C(=O)[C@@]32C)C1 [compound 1, fusarisetin A]	67.5 (≈ 173 µM)	69.5 (≈ 178 µM)	57.7 (≈ 148 µM)	10	61.3 (≈ 157 µM)	34.7 (≈ 89.1 µM)
C[C@H]1CC[C@H]2[C@@H](C=C[C@@H]3[C@H]4[C@H](C)O[C@]5(O)[C@@H](CO)N(C)C(=O)[C@]45C(=O)[C@@]32C)C1 [compound 2, fusarisetin B]	62.2 (≈ 160 µM)	76.5 (≈ 196 µM)	29.4 (≈ 75.5 µM)	10	49.3 (≈ 127 µM)	27.2 (≈ 69.8 µM)
